Data on 13 compounds can be found in patent US12643880B2, “Heterobifunctional molecules as TEAD inhibitors” (Genentech, Inc., priority 2020, dated 2026).

Common to all, as to assay type: binding
Details in all cases: His-tagged TEAD protein, biotinylated lipid pocket probe

For one test, the target named is TEAD2 (Homo sapiens, UniProt Q15562). Description: TEAD lipid pocket TR-FRET (Lipid HTRF) competition assay, TEAD2. The method, then:
(§1) His-tagged TEAD proteins are pre-incubated with TEAD project compounds for 30 minutes at room temperature. Biotinylated lipid pocket probes are then added to the TEAD/Compound mixture and incubated for 60 minutes at room temperature. The lipid pocket probe competes with the test compound for the TEAD lipid pocket until equilibrium is reached. After 60 minutes, Europium labelled anti-His (Perkin Elmer #ADO 110) and XL665 labelled streptavidin (CIS Bio 610SAXAC) are added to the TEAD/test compound/lipid pocket mixture and incubated for 30 minutes. TR-FRET values are then measured using an EnVision multi-label plate reader (Perkin Elmer Cat #2104-1A.) If the lipid pocket probe binds to TEAD as expected, a TR-FRET signal results from the proximity of Tani-His Eu and XL665. If a TEAD lipid pocket binder such as binds and displaces the lipid pocket probe, the disruption of the TEAD:probe interaction results in a decrease in TR-FRET signal. The potency of compounds as TEAD lipid pocket binders is determined by IC50 value generated using a non-linear 4 parameter curve fit. This assay format enables more sensitive determinations of lipid pocket affinity than the aforementioned TEAD lipid pocket FP assay due to the decreased concentration of TEAD protein required for the TR-FRET assay format.

The target in a further test is TEAD1 (Homo sapiens, UniProt P28347). The experiment in a line: TEAD lipid pocket TR-FRET (Lipid HTRF) competition assay, TEAD1. On the procedure:
as §1
(In TR-FRET formats the signal depends on donor and acceptor labels being close together.)

The target in a further test is TEAD4 (Homo sapiens, UniProt Q15561). The experiment in a line: TEAD lipid pocket TR-FRET (Lipid HTRF) competition assay, TEAD4. The method, then:
as §1

Another test addresses TEAD3 (Homo sapiens, UniProt Q99594). The experiment in a line: TEAD lipid pocket TR-FRET (Lipid HTRF) competition assay, TEAD3. On the procedure: as §1

Chain of TEAD1 (P28347 whole entry, species assumed): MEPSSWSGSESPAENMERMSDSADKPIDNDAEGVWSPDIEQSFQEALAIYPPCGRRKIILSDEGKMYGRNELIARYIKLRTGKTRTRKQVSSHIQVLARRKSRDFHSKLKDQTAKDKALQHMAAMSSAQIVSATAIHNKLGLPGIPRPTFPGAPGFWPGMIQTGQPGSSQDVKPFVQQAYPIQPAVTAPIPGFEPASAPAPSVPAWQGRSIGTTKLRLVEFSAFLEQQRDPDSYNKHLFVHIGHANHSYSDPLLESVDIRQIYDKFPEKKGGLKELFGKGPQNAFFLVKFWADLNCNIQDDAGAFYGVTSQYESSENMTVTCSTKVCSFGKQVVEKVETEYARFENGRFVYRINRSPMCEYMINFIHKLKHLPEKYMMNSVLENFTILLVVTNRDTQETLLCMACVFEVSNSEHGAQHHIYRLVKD
Chain of TEAD3 (Q99594 whole entry, species assumed): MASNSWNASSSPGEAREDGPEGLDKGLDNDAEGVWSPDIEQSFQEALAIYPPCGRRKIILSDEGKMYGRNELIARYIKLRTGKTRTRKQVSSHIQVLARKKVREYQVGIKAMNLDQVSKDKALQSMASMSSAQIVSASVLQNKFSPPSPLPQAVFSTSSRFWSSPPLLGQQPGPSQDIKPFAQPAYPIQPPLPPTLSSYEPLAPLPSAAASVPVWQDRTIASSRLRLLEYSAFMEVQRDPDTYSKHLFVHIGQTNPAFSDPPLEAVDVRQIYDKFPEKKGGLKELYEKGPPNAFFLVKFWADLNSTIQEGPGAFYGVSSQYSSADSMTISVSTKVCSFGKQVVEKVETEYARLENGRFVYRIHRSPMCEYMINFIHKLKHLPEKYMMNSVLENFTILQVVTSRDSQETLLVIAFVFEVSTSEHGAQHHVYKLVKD
Chain of TEAD2 (Q15562 whole entry, species assumed): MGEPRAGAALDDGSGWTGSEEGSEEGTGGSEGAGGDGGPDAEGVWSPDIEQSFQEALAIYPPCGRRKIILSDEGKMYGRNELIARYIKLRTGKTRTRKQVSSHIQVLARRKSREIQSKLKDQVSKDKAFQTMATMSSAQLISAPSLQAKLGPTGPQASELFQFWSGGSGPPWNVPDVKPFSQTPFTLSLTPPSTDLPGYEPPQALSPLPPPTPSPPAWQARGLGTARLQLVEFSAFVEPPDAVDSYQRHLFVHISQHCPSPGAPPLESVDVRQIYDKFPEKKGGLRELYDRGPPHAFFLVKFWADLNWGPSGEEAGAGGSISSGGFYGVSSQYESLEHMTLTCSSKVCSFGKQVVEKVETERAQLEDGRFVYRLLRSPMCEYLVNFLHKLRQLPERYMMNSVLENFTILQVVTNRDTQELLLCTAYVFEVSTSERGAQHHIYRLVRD
Chain of TEAD4 (Q15561 whole entry, species assumed): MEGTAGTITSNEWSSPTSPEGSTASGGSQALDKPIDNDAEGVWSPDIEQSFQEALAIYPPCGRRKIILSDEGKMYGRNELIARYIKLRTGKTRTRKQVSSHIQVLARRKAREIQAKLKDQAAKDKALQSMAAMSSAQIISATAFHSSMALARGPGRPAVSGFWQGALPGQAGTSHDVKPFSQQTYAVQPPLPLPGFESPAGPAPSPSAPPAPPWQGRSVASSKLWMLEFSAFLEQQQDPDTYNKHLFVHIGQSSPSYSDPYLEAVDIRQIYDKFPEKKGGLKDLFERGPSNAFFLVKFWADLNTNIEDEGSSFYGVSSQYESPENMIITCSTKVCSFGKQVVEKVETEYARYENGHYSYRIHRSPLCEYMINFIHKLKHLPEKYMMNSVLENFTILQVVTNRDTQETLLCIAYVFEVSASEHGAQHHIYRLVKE

Usually IC50 stands for the concentration that gives 50% inhibition. Low readings indicate greater potency, high ones weaker potency. Turning to `COc1cnc(C(=O)NCc2cccc(CC(=O)N(C)CCCCOc3ccc4c(c3)C(=O)N(C3CCC(=O)NC3=O)C4=O)c2)cc1/C=C/[C@H]1CC[C@H](C(F)(F)F)CC1` (stereo partly drawn) [Compound 1, N-(3-(2-((4-((2-(2,6-dioxopiperidin-3-yl)-1,3-dioxoisoindolin-5-yl)oxy)butyl)(methyl)amino)-2-oxoethyl)benzyl)-5-methoxy-4-((E)-2-(trans-4-(trifluoromethyl)cyclohexyl)vinyl)picolinamide], the IC50 amounted to 230 nM on TEAD2, 650 nM at TEAD1, 90 nM at TEAD4 and 6000 nM on TEAD3.

Turning to `COc1cnc(C(=O)NCc2cccc(CC(=O)N(C)CCCCCCOc3ccc4c(c3)C(=O)N(C3CCC(=O)NC3=O)C4=O)c2)cc1/C=C/[C@H]1CC[C@H](C(F)(F)F)CC1` (stereo partly drawn) [Compound 2, N-(3-(2-((6-((2-(2,6-Dioxopiperidin-3-yl)-1,3-dioxoisoindolin-5-yl)oxy)hexyl)(methyl)amino)-2-oxoethyl)benzyl)-5-methoxy-4-((E)-2-(trans-4-(trifluoromethyl)cyclohexyl)vinyl)picolinamide], the IC50 on TEAD2 came out at 1150 nM; on TEAD1 it was 5750 nM; on TEAD4 it was 400 nM; at TEAD3, 18800 nM.

For `COc1cnc(C(=O)NCc2cccc(CC(=O)N(C)CCOCCOCCOCCOc3ccc4c(c3)C(=O)N(C3CCC(=O)NC3=O)C4=O)c2)cc1/C=C/[C@H]1CC[C@H](C(F)(F)F)CC1` (stereo partly drawn) [Compound 3, N-(3-(14-((2-(2,6-Dioxopiperidin-3-yl)-1,3-dioxoisoindolin-5-yl)oxy)-3-methyl-2-oxo-6,9,12-trioxa-3-azatetradecyl)benzyl)-5-methoxy-4-((E)-2-(trans-4-(trifluoromethyl)cyclohexyl)vinyl)picolinamide], the IC50 at TEAD2 is 130 nM; on TEAD1, 300 nM; at TEAD4, 60 nM; on TEAD3, 4800 nM.

With `COc1cnc(C(=O)NCc2cccc(CC(=O)N(C)CCOCCOCCOCCOCCOc3ccc4c(c3)C(=O)N(C3CCC(=O)NC3=O)C4=O)c2)cc1/C=C/[C@H]1CC[C@H](C(F)(F)F)CC1` (stereo partly drawn) [Compound 4, N-(3-(17-((2-(2,6-Dioxopiperidin-3-yl)-1,3-dioxoisoindolin-5-yl)oxy)-3-methyl-2-oxo-6,9,12,15-tetraoxa-3-azaheptadecyl)benzyl)-5-methoxy-4-((E)-2-(trans-4-(trifluoromethyl)cyclohexyl)vinyl)picolinamide], the IC50 was 200 nM on TEAD2, 280 nM at TEAD1, 70 nM at TEAD4 and 1830 nM at TEAD3.

As to `COc1cnc(C(=O)NCc2cccc(CC(=O)N(C)CCOCCOc3ccc4c(c3)C(=O)N(C3CCC(=O)NC3=O)C4=O)c2)cc1/C=C/[C@H]1CC[C@H](C(F)(F)F)CC1` (stereo partly drawn) [Compound 5, N-(3-(2-((2-(2-((2-(2,6-Dioxopiperidin-3-yl)-1,3-dioxoisoindolin-5-yl)oxy)ethoxy)ethyl)(methyl)amino)-2-oxoethyl)benzyl)-5-methoxy-4-((E)-2-(trans-4-(trifluoromethyl)cyclohexyl)vinyl)picolinamide], the IC50 came out at 180 nM at TEAD2, 510 nM on TEAD1, 110 nM on TEAD4 and 4000 nM on TEAD3.

For the compound `COc1cnc(C(=O)NCc2cccc(CC(=O)N(C)CCOCCOCCOc3ccc4c(c3)C(=O)N(C3CCC(=O)NC3=O)C4=O)c2)cc1/C=C/[C@H]1CC[C@H](C(F)(F)F)CC1` (stereo partly drawn) [Compound 6, N-(3-(2-((2-(2-(2-((2-(2,6-Dioxopiperidin-3-yl)-1,3-dioxoisoindolin-5-yl)oxy)ethoxy)ethoxy)ethyl)(methyl)amino)-2-oxoethyl)benzyl)-5-methoxy-4-((E)-2-(trans-4-(trifluoromethyl)cyclohexyl)vinyl)picolinamide], the 50% inhibitory concentration (IC50) at TEAD2 was 180 nM; on TEAD1 it was 1150 nM; at TEAD4 it was 70 nM; on TEAD3 it was 30000 nM.

For `COc1cnc(C(=O)NCc2cccc(CC(=O)N(C)CCOCCOCCOCCOCCOCCOc3ccc4c(c3)C(=O)N(C3CCC(=O)NC3=O)C4=O)c2)cc1/C=C/[C@H]1CC[C@H](C(F)(F)F)CC1` (stereo partly drawn) [Compound 7, N-(3-(20-((2-(2,6-Dioxopiperidin-3-yl)-1,3-dioxoisoindolin-5-yl)oxy)-3-methyl-2-oxo-6,9,12,15,18-pentaoxa-3-azaicosyl)benzyl)-5-methoxy-4-((E)-2-(trans-4-(trifluoromethyl)cyclohexyl)vinyl)picolinamide], the IC50 at TEAD2 amounted to 110 nM; on TEAD1 it was 360 nM; on TEAD4 it was 60 nM; on TEAD3 it was 2000 nM.

In the case of `COc1cnc(C(=O)NCc2cccc(CC(=O)N(C)CCCOc3ccc4c(c3)C(=O)N(C3CCC(=O)NC3=O)C4=O)c2)cc1/C=C/[C@H]1CC[C@H](C(F)(F)F)CC1` (stereo partly drawn) [Compound 8, N-(3-(2-((3-((2-(2,6-Dioxopiperidin-3-yl)-1,3-dioxoisoindolin-5-yl)oxy)propyl)(methyl)amino)-2-oxoethyl)benzyl)-5-methoxy-4-((E)-2-(trans-4-(trifluoromethyl)cyclohexyl)vinyl)picolinamide], the IC50 on TEAD2 stood at 290 nM; on TEAD1, 720 nM; at TEAD4 it was 180 nM; at TEAD3, 8200 nM.

Consider `COc1cnc(C(=O)NCc2cccc(CC(=O)N(C)CCCCCCCOc3ccc4c(c3)C(=O)N(C3CCC(=O)NC3=O)C4=O)c2)cc1/C=C/[C@H]1CC[C@H](C(F)(F)F)CC1` (stereo partly drawn) [Compound 9, N-(3-(2-((7-((2-(2,6-Dioxopiperidin-3-yl)-1,3-dioxoisoindolin-5-yl)oxy)heptyl)(methyl)amino)-2-oxoethyl)benzyl)-5-methoxy-4-((E)-2-(trans-4-(trifluoromethyl)cyclohexyl)vinyl)picolinamide], for which the IC50 is 650 nM on TEAD2, 1300 nM on TEAD1, 320 nM on TEAD4 and 5370 nM at TEAD3.

As for `COc1cnc(C(=O)NCc2cccc(CC(=O)N(C)CCCCCOc3ccc4c(c3)C(=O)N(C3CCC(=O)NC3=O)C4=O)c2)cc1/C=C/[C@H]1CC[C@H](C(F)(F)F)CC1` (stereo partly drawn) [Compound 10, N-(3-(2-((5-((2-(2,6-Dioxopiperidin-3-yl)-1,3-dioxoisoindolin-5-yl)oxy)pentyl)(methyl)amino)-2-oxoethyl)benzyl)-5-methoxy-4-((E)-2-(trans-4-(trifluoromethyl)cyclohexyl)vinyl)picolinamide], the IC50 worked out at 4800 nM at TEAD2, 18800 nM at TEAD1, 470 nM on TEAD4 and 50000 nM at TEAD3.

For `COc1cnc(C(=O)NCc2cccc(CC(=O)NCCCCC(=O)N[C@H](C(=O)N3C[C@H](O)C[C@H]3C(=O)NCc3ccc(-c4scnc4C)cc3)C(C)(C)C)c2)cc1/C=C/[C@H]1CC[C@H](C(F)(F)F)CC1` [Compound 11, N-(3-(2-((5-(((S)-1-((2S,4R)-4-Hydroxy-2-((4-(4-methylthiazol-5-yl)benzyl)carbamoyl)pyrrolidin-1-yl)-3,3-dimethyl-1-oxobutan-2-yl)amino)-5-oxopentyl)amino)-2-oxoethyl)benzyl)-5-methoxy-4-((E)-2-(trans-4-(trifluoromethyl)cyclohexyl)vinyl)picolinamide], the IC50 at TEAD2 came to 370 nM; at TEAD1 it was 700 nM; at TEAD4, 170 nM; on TEAD3 it was 2530 nM.

For the compound `COc1cnc(C(=O)NCc2cccc(CC(=O)NCCCCCCC(=O)N[C@H](C(=O)N3C[C@H](O)C[C@H]3C(=O)NCc3ccc(-c4scnc4C)cc3)C(C)(C)C)c2)cc1/C=C/[C@H]1CC[C@H](C(F)(F)F)CC1` [Compound 12, N-(3-(2-((7-(((S)-1-((2S,4R)-4-Hydroxy-2-((4-(4-methylthiazol-5-yl)benzyl)carbamoyl)pyrrolidin-1-yl)-3,3-dimethyl-1-oxobutan-2-yl)amino)-7-oxoheptyl)amino)-2-oxoethyl)benzyl)-5-methoxy-4-((E)-2-(trans-4-(trifluoromethyl)cyclohexyl)vinyl)picolinamide], the IC50 was 690 nM on TEAD2, 1320 nM at TEAD1, 280 nM at TEAD4 and 5900 nM at TEAD3.

In the case of `COc1cnc(C(=O)NCc2cccc(CC(=O)NCCCCCCCCC(=O)N[C@H](C(=O)N3C[C@H](O)C[C@H]3C(=O)NCc3ccc(-c4scnc4C)cc3)C(C)(C)C)c2)cc1/C=C/[C@H]1CC[C@H](C(F)(F)F)CC1` [Compound 13, N-(3-(2-((9-(((S)-1-((2S,4R)-4-Hydroxy-2-((4-(4-methylthiazol-5-yl)benzyl)carbamoyl)pyrrolidin-1-yl)-3,3-dimethyl-1-oxobutan-2-yl)amino)-9-oxononyl)amino)-2-oxoethyl)benzyl)-5-methoxy-4-((E)-2-(trans-4-(trifluoromethyl)cyclohexyl)vinyl)picolinamide], the IC50 came to 460 nM on TEAD2, 980 nM at TEAD1, 220 nM on TEAD4 and 4030 nM on TEAD3.
